From patent US8703726B2, “Methods for treating prostate conditions” (PTC Therapeutics, Inc., priority 2009, dated 2014)
Like-named read-outs stand apart in the source and are kept apart here.

Assays:
[1] = test system: LNCaP prostate tumor cells; conditions: mouse, in vivo, po, 25 mg/kg
Description: (§1) Male C.B.17 SCID mice (Charles River Laboratory; Wilmington, Mass.) were inoculated with LNCaP prostate tumor cells (6.1×10^6 cells/mouse) obtained from the ATCC (Manassas, Va.). […] Mice were inoculated using a 25 gauge needle in the right flank in a volume of 0.2 mL. A total of 95 mice were injected, of which 32 were used.
(§2) Twenty-seven days after inoculation, the mice were randomized into 4 groups as outlined in Table 33. […] Treatment started on Day 0 and continued through Day 30.
(§3) Body Weight: One day prior to the initiation of the study, the mice were weighed. Thereafter, mice were weighed every week and on the day that the study was terminated.
(§4) Tumor Size: Tumors were measured every 3 to 4 days using digital calipers. To calculate tumor volume, the following calculation was used, where L equals the longest dimension measurement and W equals the shortest dimension measurement:
(§5) Tumor growth was calculated as: [1-[(final tumor size minus initial tumor size in test compound treated-mice)/(final tumor size minus initial tumor size in vehicle-treated mice)]×100%
(§6) Percent change in body weight was calculated as: [(Body weight on Day of study)−(initial body weight)/(initial body weight)]×100%
(§7) Differences in tumor size, tumor growth, and body weight change among groups were analyzed by ANOVA (analysis of variance) (SigmaStat 3.0).

[2] = test system: LNCaP prostate tumor cells; assay: LNCaP tumors in SCID mice: Compound #10 as monotherapy and with bicalutamide
Description: as §1, §2, §3, §4, §5, §6, §7

[3] = test system: LNCaP prostate tumor cells; assay: LNCaP tumors in SCID mice: Compound #10 as monotherapy and with docetaxel
Description: as §1
(§8) Treatment started on Day 0 and continued through Day 31.
as §3, §4
(§9) Data Analysis: Tumor growth was calculated as: [1-[(final tumor size minus initial tumor size in test compound treated-mice)/(final tumor size minus initial tumor size in vehicle-treated mice)]×100%
as §6, §7

PC3 xenografts = assay: PC3 tumors in mice: Compound #10 as monotherapy and with docetaxel
Description: PC3 cells (CRL 1435) obtained from the American Type Tissue Collection (ATCC, Manassas, Va.) were thawed and seeded at 0.5×10^7 cells per 175 mm^2 flask. Cells were fed and expanded on a regular schedule to reach a given density prior to passage. Flasks were between 80-90% confluent, but not >95% confluent on the day of harvest. Harvest occurred ˜48 hr after the previous split to allow for full recovery.
To harvest the cells, medium was removed from the flasks and the cell layers rinsed with 37° C. PBS. A volume of 3 mL trypsin-EDTA was added per 175 cm^2 surface area and incubated at room temperature for 5 minutes until the cells detached. The cells were collected in 7-10 mL ice cold complete medium and were transferred to a conical tube. The tube was placed immediately on ice. After all flasks were harvested, the cells were pelleted by centrifugation at 4° C. Cells were re-suspended at 2.5×10^7 cells/mL in Hank's Salt Solution and 10 mM HEPES. Cells were stored on ice until the time of tumor inoculation (which was less than 1 h later).
Tumor Cell Injection: Tumor cells were kept on ice at all times. […] A 25-gauge needle was used for tumor cell injections. Tumor cells were injected in a volume of 0.2 mL subcutaneously. A total of 100 mice were inoculated, of which 69 were used in the study.
Seventeen days after inoculation, the mice were randomized into six groups. At this time, the majority of the tumors had reached a volume of 170-415 mm^3. Randomization of the mice was performed by using the formula RAND ( )*5000 from Microsoft Excel. […] Animals with tumors that were not within the 170-415 mm^3 range were excluded from the study.
Furthermore, all animals in a group were taken off study when the mean tumor size in that group reached 1000 mm^3.
as §4
Differences in mean tumor size, tumor growth, and body weight change were compared across groups using analysis of variance (ANOVA) (SigmaStat 3.0).
To calculate the time to progression, defined as the number of days for a tumor to reach 1000 mm^3, tumor growth vs time was individually plotted for each animal. The time to reach 1000 mm^3 estimated for each animal. […] The median and mean time for each treatment group to reach 1000 mm^3 was then calculated and groups were compared using ANOVA (SigmaStat 3.0).
as §3

[4] = test system: LNCaP prostate tumor cells; conditions: mouse, in vivo, iv, 3 mg/kg
Description: as §1, §8, §3, §4, §9, §6, §7

HT1080 cells = assay: Cell cycle analysis by propidium iodide flow cytometry in HT1080 cells (% cells in S-phase, Table 24); type: cell-based, human; conditions: same tumor cells
Description: Experimental Design. […] After treatment, cells were trypsinized, and stained with propidium iodide (PI) dye to measure DNA content of individual cells by flow cytometry. Output comprised histograms showing relative DNA content in 10,000 cells.
While compounds which cause greater than 20% of the cells to accumulate in S-phase at 100 nM are considered active, a larger percentage of cells may be accumulated in S-phase at lower doses depending on the Compound, as shown in FIG. 12 for example.

[5] = Bicalutamide, 25 mg/kg QD on Days 0, 1, 2, 3, 6, 7, 8, 9, and 10, L21 vehicle, QD, oral
[6] = Docetaxel, 3 mg/kg IV on Days 1 and 8, Vehicle, QD, daily

CC(O)(CS(=O)(=O)c1ccc(F)cc1)C(=O)Nc1ccc(C#N)c(C(F)(F)F)c1 (centres unmarked) [bicalutamide]
Day of Maximal Loss (body weight) [1]: 20 days
Maximal Body Weight Loss From Initial Weight [1]: −5.3%
Percent Inhibition Relative to Vehicle: Tumor Growth From Day 0 to 31 [2, 5]: 9.3%^
Percent Inhibition Relative to Vehicle: Tumor Volume at Day 31 [2, 5]: 7.2%^
mean±SD tumor size ([2]; Day 30, Compound #10 10 mg/kg PO QD, bicalutamide 25 mg/kg QD): 1059±321 mm3

CC(=O)O[C@@]12CO[C@@H]1C[C@H](O)[C@@]1(C)C(=O)[C@H](O)C3=C(C)[C@@H](OC(=O)[C@H](O)[C@@H](NC(=O)OC(C)(C)C)c4ccccc4)C[C@@](O)([C@@H](OC(=O)c4ccccc4)[C@H]21)C3(C)C [docetaxel]
mean±SD tumor size ([3]; Day 31, Compound #10 10 mg/kg PO QD, docetaxel 3 mg/kg Days 1 and 8): 1017±458 mm3
inhibition of tumor size or of the increase in tumor size versus vehicle ([3]; Day 31, docetaxel 3 mg/kg Days 1 and 8): No statistically significant differences
Percent Inhibition Relative to Vehicle: Tumor Growth From Day 0 to 31 [3, 6]: 17%
Percent Inhibition Relative to Vehicle: Tumor Volume at Day 31 [3, 6]: 12%
Average Time on Therapy (PC3 xenografts; 3 mg/kg IV Day 1, 8 and 10 mg/kg Day 29, vehicle 22): 23 days
Median Time to Reach 1000 mm^3 (time to progression) (PC3 xenografts; 3 mg/kg IV Day 1, 8 and 10 mg/kg Day 29, vehicle 23): 22 days
body weight change (PC3 xenografts; PC3 tumor-bearing mice, Day 35 / Day 42): significantly more weight loss
median time to progression (tumor ≧1000 mm^3) (PC3 xenografts; docetaxel IV 3 mg/kg on Day 1 and at 8 and 10 mg/kg on Day 29): 22 days
tumors vs vehicle-treated mice (PC3 xenografts; docetaxel IV, up to Day 35): not significantly different from the tumors in vehicle-treated mice
Day of Maximal Loss (body weight) [4]: (Day 13)
Maximal Body Weight Loss From Initial Weight [4]: −15%

NC(Cn1ccc(=O)c(O)c1)C(=O)O (centres unmarked) [mimosine]
effect of comparator on cell cycle (and VEGF production) (data not shown) (HT1080 cells): does not delay or prolong the cell cycle or reduce VEGF production
